In assay [1] the test system is MG-derived AGEs formation in BSA. Nature of the assay: In vitro glycation of BSA by MG-BSA assay (fluorescent-AGEs formation). It counts as biochemical, bovine. Conditions: compound 0.1 mM, BSA 10 mg/mL, MG 0.25 mM, PBS pH 7.4, 37 °C, 24 h; fluorescence ex 355/em 460 nm. Here is the method: All isolated compounds were evaluated for their inhibitory effect on the fluorescent-AGEs formation after incubation with bovine serum albumin (BSA) and MG for 24 h (Figure 2).
Figure 2 Advanced glycation-end products (AGEs) inhibition activity of aminoguanidine (0.1 mM) and isolated compounds (0.1 mM) on MG-derived AGEs formation inhibition in BSA. The results are presented as mean ± SEM for n = 3. Different letters show significant differences analyzed by ANOVA with Duncan’s post hoc test (p < 0.05).
Glycated BSA was carried out according to our previous study. The mixture of bovine serum albumin (BSA, 10 mg/mL), isolated compound (0.1 mM in dimethyl sulfoxide, DMSO), and methylglyoxal (MG, 0.25 mM) in 0.1 M phosphate buffer solution (PBS, pH 7.4) was incubated at 37 °C for 24 h. The glycated BSA was monitored by a spectrofluorometer (Fluroskan Ascent FL, Thermo Scientific, Barrington, IL, USA) at the excitation wavelength of 355 nm, and an emission wavelength of 460 nm. Aminoguanidine hydrochloride (AG) was utilized as a positive control. The percentage inhibition of MG-derived AGE formation was calculated by utilizing the formula below:(1) Inhibition of AGEs formation (%)=(FC−FCB)−(FS−FSB)/FC−FCB×100 where FC and FCB are the fluorescent intensities of the control with and without MG, respectively. FS and FSB are the fluorescent intensities of the sample with and without MG, respectively.

The nature of assay [2]: Direct MG-trapping activity by HPLC. Conditions: compound 0.1 mM, MG 0.1 mM, PBS pH 7.4, 37 °C, 24 h; HPLC of 2-MQ. Here is the method:
Figure 3 The percentage of MG-trapping abilities of isolated compounds (0.1 mM). The results are presented as the mean ± SEM for n = 3. Different letters show significant differences, as analyzed by ANOVA, with Duncan’s post hoc test (p < 0.05).
The ability of the isolated compounds to trap MG was carried out, according to our previous report. The reaction mixture of MG (0.1 mM), isolated compound (0.1 mM in DMSO) and 0.1 M PBS (pH 7.4) was incubated at 37 °C for 24 h. The quantitative amount of the remaining MG was determined by derivatization with o-phenylenediamine (o-PDA) to convert to 2-methylquinoxaline (2-MQ). Then, 2-MQ obtained was measured by HPLC using 5-methylquinoxaline (5-MQ) as an internal standard. The mixture comprising 100 µL of o-PDA (20 mM) and 100 µL of 5-MQ (5 mM) was added into the sample vials, and incubated at 25 °C for 30 min. HPLC analysis was performed on a Shimadzu HPLC system (binary pump; model LC-10A, an auto-injector; model SIL-10A, and a UV detector; model SPD-10A) equipped with an Inertsil ODS-3 V C18 column (4.6 × 150 mm, 5 μm particle diameter). The column was flushed with a mixture of 1:1 methanol–water at a flow rate of 1 mL/min, and a 10 μL of injection volume. The overall running time was 15 min, and the wavelength used for detection was 315 nm. The area under each chromatogram peak, 2-MQ and 5-MQ, was calculated with an LC solution program. Peak integrality proportions of 2-MQ to 5-MQ were utilized for quantitative examination. The amount of MG was calculated by utilizing the standard curve of 2-MQ/5-MQ proportion. AG was utilized as a positive control. The percentage MG-trapping was calculated utilizing the formula below:(2) %MG−trapping=100−[Amount of (MG in sample−MG in positive control)/Amount of MG in positive control×100]

The next assay deals with rat intestinal maltase. Nature of the assay: α-Glucosidase inhibitory activity and kinetic study, maltase. Type of assay: biochemical. Here is the method:
(§1) The α-glucosidase (from rat intestine) inhibitory effect was evaluated, utilizing our previous study. Rat intestinal maltase and sucrase, a crude enzyme solution, was prepared from rat intestinal acetone powder. A solution of rat intestinal acetone powder (1 g) in 0.9% NaCl solution (30 mL) was centrifuged (12,000 rpm) for 30 min, and then the aliquot obtained was used for the assay. The mixture of 10 μL of isolated compounds (1 mg/mL in DMSO), 30 μL of the phosphate buffer (0.1 M, pH 6.9), and 20 μL of the substrate solution (10 mM for maltose and 100 mM for sucrose in phosphate buffer) was added to a glucose assay kit (80 μL) and the crude enzyme solution (20 μL), which then was incubated at 37 °C for 10 min and 40 min for maltose and sucrose, respectively. The enzymatic activity was measured at 503 nm by using a microplate reader, model 3550 UV. The percentage inhibition was calculated by [(Ac − As)/Ac] × 100, where Ac is the absorbance of the control, and As is the absorbance in the presence of sample. The results were reported as the IC50 value, and the experiment was carried out in triplicate. Acarbose® was used as a standard control.
(§2) The kinetic analysis of pinocembrin was determined by using an increasing concentration of substrates maltose (2–10 mM) and sucrose (20–100 mM), and a Lineweaver–Burk plot was performed to determine the type of inhibition. The secondary plot was utilized to determine the Ki and Ki′ values, which were replotted between the slope and intercept from the Lineweaver–Burk plot vs the various concentrations of pinocembrin.

The next assay concerns the target T1, rat intestinal sucrase (Rattus norvegicus, UniProt P23739).
T1 construct: a crude enzyme solution, was prepared from rat intestinal acetone powder; from tissue; host or cells: rat intestine (acetone powder, crude extract)
Nature of the assay: α-Glucosidase inhibitory activity and kinetic study, sucrase. Type of assay: biochemical. Here is the method: as §1, §2

The nature of assay [3]: Direct MG-trapping activity by HPLC. The conditions noted are these: against methylglyoxal.

T1 sequence (P23739 whole entry): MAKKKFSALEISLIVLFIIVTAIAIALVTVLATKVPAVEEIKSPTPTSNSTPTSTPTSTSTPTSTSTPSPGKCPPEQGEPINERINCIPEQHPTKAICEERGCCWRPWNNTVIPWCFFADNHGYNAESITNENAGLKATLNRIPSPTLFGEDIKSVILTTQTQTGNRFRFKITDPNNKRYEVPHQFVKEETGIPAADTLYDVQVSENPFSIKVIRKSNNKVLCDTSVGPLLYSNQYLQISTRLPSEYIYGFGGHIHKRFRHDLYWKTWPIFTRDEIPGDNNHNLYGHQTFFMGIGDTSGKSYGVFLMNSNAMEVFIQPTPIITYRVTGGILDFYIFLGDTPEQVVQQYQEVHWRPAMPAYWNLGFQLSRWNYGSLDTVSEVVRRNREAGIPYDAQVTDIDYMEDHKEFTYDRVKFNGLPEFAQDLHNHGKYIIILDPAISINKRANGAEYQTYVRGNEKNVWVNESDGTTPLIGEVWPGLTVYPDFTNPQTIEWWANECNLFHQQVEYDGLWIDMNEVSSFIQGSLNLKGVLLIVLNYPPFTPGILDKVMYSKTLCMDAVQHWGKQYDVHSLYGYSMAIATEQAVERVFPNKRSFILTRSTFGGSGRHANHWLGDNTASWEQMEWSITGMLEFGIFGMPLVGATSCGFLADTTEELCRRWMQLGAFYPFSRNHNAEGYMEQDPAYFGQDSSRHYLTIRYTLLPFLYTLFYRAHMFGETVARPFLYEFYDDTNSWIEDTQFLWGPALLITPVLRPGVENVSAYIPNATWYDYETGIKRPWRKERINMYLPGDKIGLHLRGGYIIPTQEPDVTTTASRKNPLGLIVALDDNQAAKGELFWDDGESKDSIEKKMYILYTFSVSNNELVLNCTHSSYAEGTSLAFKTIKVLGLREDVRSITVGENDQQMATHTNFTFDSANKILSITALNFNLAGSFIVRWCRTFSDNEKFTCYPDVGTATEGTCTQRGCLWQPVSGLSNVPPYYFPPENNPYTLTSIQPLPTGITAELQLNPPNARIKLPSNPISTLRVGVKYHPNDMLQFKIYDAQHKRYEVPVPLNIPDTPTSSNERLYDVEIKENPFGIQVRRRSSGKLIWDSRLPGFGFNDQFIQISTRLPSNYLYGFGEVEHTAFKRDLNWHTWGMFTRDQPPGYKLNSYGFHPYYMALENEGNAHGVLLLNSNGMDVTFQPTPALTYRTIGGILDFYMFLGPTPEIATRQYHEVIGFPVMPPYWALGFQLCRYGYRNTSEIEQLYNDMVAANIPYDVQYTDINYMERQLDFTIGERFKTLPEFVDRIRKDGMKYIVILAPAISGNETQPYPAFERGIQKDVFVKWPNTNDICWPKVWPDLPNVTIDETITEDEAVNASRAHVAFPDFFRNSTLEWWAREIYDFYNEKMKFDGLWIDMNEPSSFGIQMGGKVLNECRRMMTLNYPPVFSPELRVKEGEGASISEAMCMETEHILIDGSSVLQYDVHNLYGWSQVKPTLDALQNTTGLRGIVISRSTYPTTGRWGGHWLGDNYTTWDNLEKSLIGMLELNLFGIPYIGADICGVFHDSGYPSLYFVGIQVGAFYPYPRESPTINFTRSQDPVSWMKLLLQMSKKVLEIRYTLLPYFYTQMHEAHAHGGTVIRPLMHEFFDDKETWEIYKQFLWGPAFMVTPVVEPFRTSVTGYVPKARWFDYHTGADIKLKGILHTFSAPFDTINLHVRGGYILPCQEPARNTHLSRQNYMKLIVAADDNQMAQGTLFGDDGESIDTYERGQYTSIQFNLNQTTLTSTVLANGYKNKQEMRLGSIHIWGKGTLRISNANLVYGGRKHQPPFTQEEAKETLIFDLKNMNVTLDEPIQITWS

Consider alpinetin [compound 3], for which, in assay [1], the “Inhibition of MG-derived AGEs formation” value was found to be 50%. Moreover, in assay [2], the “MG-trapping activity, percentage related to AG (100%)” value worked out at 14%.

`COc1cc(O)cc(O)c1C(=O)C1C(CC=C(C)C)C(C)=CCC1c1ccccc1` (stereo not drawn) [compound 7, isopanduratin A]: the “Inhibition of MG-derived AGEs formation” value in assay [1] is listed as 36%. Moreover, in assay [2], the “MG-trapping activity, percentage related to AG (100%)” value came out at 9%.

As to `COc1cc(/C=C/c2ccccc2)oc(=O)c1` [compound 8, demethoxyyangonin], in assay [1], the “Inhibition of MG-derived AGEs formation” value was determined as 46%. Moreover, in assay [2], the “MG-trapping activity, percentage related to AG (100%)” value came to 23%.

In the case of `COc1cc(O)c(C(=O)[C@@H]2[C@H](CC=C(C)C)C(C)=CC[C@H]2c2ccccc2)c(O)c1` [compound 6, panduratin A], in assay [1], the “Inhibition of MG-derived AGEs formation” value was found to be 43%. In assay [2], the “MG-trapping activity, percentage related to AG (100%)” value amounted to 60%.

On to `COc1cc2c(c(O)c1C(=O)/C=C/c1ccccc1)C=CC(C)(CCC=C(C)C)O2` (stereo not drawn) [compound 5, boesenbergin B], for which, in assay [1], the “Inhibition of MG-derived AGEs formation” value was 39%. Besides, the “MG-trapping activity, percentage related to AG (100%)” value in assay [2] stood at 19%.

For the molecule `COc1cc(O)cc(O)c1C(=O)/C=C/c1ccccc1` [compound 4, cardamomin], the “Inhibition of MG-derived AGEs formation” value in assay [1] stood at 44%. In assay [2], the “MG-trapping activity, percentage related to AG (100%)” value came out at 28%.

For the molecule `Cl.N=C(N)NN` [AG, Aminoguanidine hydrochloride, reference compound], the “Inhibition of MG-derived AGEs formation” value in assay [1] amounted to 28%. The “MG-trapping activity, percentage related to AG (100%)” value in assay [2] came out at 100%.

On to `COc1cc(O)c2c(c1)O[C@H](c1ccccc1)CC2=O` [compound 2, pinostrobin], for which the “Inhibition of MG-derived AGEs formation” value in assay [1] is 19%. The “MG-trapping activity, percentage related to AG (100%)” value in assay [2] was found to be 5%.

As for `O=C1C[C@@H](c2ccccc2)Oc2cc(O)cc(O)c21` [compound 1, pinocembrin], the “Inhibition of MG-derived AGEs formation” value in assay [1] turned out to be 38%. Besides, the “Inhibition Type” value in the assay with rat intestinal maltase (maltase, Lineweaver–Burk plot) is reported as “mixed-type”; at rat intestinal sucrase (sucrase, Lineweaver–Burk plot), “mixed-type inhibition”. Further, the Ki at rat intestinal maltase (maltase, dissociation constant of EI complex, secondary plot of slope) was determined as 93 µM; at rat intestinal maltase (maltase, dissociation constant of ESI complex, secondary plot of intercept), 138 µM; at rat intestinal sucrase (sucrase, dissociation constant of EI complex) it was 51 µM; at rat intestinal sucrase (sucrase, dissociation constant of ESI complex) it was 253 µM. The IC50 at rat intestinal maltase (rat intestinal maltase, substrate maltose, read-out: IC50 against maltase) stood at 350 ± 21 µM; at rat intestinal sucrase (rat intestinal sucrase, substrate sucrose, read-out: IC50 against sucrose), 390 ± 20 µM. This molecule also gave an EC50 in assay [3] of 63.2 ± 10.1 µM. The “MG-trapping activity, percentage related to AG (100%)” value in assay [2] is 109%.

The term Ki denotes the dissociation constant of the complex between target and ligand, obtained from inhibition or displacement. High values mean a looser hold on the target, low ones a stronger hold on the target. In general, IC50 refers to the midpoint of a concentration-inhibition curve. What is called EC50 is the concentration giving half of the maximal effect. A lower EC50 goes with higher potency in that assay.
